From patent US4221794A, “Method of imparting immunomodulating and antiviral activity” (Newport Pharmaceuticals International, Inc., priority 1979, dated 1980)

Columns and labels:
[1] = tested on: guinea pig macrophages; assay: Lymphokine (MMF) induced guinea pig macrophage proliferation; format: cell-based; details: plus = immunostimulating, minus = immunoinhibiting, 0 = neither
Description: 3. The macrophage represents a subpopulation of white blood cells which is an important component of the immune system in control of both cellular and humoral immunity. The assay system described below evaluates the substances studied as potentiators of macrophage function.
Phytohemagglutinin (PHA) (HA-17) was purchased from Burroughs Wellcome. A preparation containing Macrophage Mitogen Factor (MMF) and Macrophage Activating Factor (MAF) was prepared from antigen-stimulated immune lymph node lymphocytes (guinea pig) as previously described by Hadden et al, Nature 257, 483-485 (1975). […] The active fraction was employed in both the proliferation and activation assays.
Ficoll-hypaque purified human peripheral blood lymphocytes were prepared and PHA-induced lymphocyte proliferation was assayed by the incorporation of tritiated thymidine as described in Hadden et al., Cell. Immunol. 20, 98-103 (1975). Each compound was analyzed in the presence of suboptimal, optimal and supraoptimal concentrations of PHA (0.001, 0.01, 0.1 units/ml respectively). Paraffin oil-induced guinea pig peritoneal macrophages were prepared and incubated as monolayer culture (>98% pure macrophages). Lymphokine (MMF)-induced proliferation was assayed by the incorporation of tritiated thymidine at 3 and 5 days of culture as described, Hadden et al, Nature 257, 483-485 (1975). Lymphokine (MAF)-induced macrophage activation to kill Listeria monocytogenes following 5 days of culture in the presence or absence of MAF was performed during a 6 hour period as described in Hadden and England, Immunopharmacology, pages 87-100 (Plenum Press, 1977). Phagocytosis was quantitated during a 20-minute exposure to Listeria monocytogenes by counting the number of macrophages containing bacteria and the number of bacteria per phagocytic cell on gram stained monolayers in Labtek chambers. Intracellular killing of bacteria was evaluated by counting the number of cells containing bacteria and the number of bacteria/cell 6 hours after the initial 20 minute exposure. Parallel experiments in which macrophages were lysed and intracellular bacteria were cultured confirm the validity of bacterial activity determined by this manner in this system. The drugs were employed in each of the three systems over serial log concentration range in triplicate in the presence and absence of mitogen or lymphokine. Each type of experiment was performed at least three times. Previous experiments indicate a parallelism of response to pharmacologic modulation in the proliferation and achivation assays.
(§1) Table 4 above presents the results of an evaluation of a number of these subject compounds as potentiators of the immune response. Three different test systems were used. The first involves a measure of the ability of the test compound to enhance the ability of mouse lymphocytes to proliferate in response to a plant mitogen (Con A). The second involves measuring the ability of the test compounds to enhance human lymphocyte proliferation in response to a second plant mitogen (PHA). The third system measures the ability of these test substances to enhance macrophage proliferation in response to a natural lymphokine (MMF, Macrophage Mitogenic Factor).

[2] = tested on: immune response; assay: Immunomodulating activity (overall); format: cell-based
Text: (§2) The following three assay procedures are used to evaluate the ability of the test substances to modulate the activity of several classes of cells in the immune system. In these systems it is possible to identify both immunopotentiating activity (evidence by an enhancement of the parameter examined) as well as immunosuppressant activity (evidenced by an inhibition of the parameter examined).
as §1

[3] = tested on: mouse lymphocytes; assay: Mitogen (Con A) induced mouse lymphocyte (spleen cell) proliferation; format: cell-based; details: for Maximum Percent Change, Mitogen Induced (Con A) Mouse Lymph. Prolif.: plus = immunostimulating, minus = immunoinhibiting, 0 = neither
Text: as §2
1. Mitogen-Induced Mouse Spleen Cell Assay
Mouse spleen cells contain a population of both B and T lymphocytes which can be stimulated by a number of foreign substances (e.g., plant mitogens such as Con A) to proliferate. This enhanced proliferation is an indication of enhanced cell mediated immunity. The method below describes the system used to evaluate test substances as immunopotentiators.
Concanavalin A (Calbiochem, La Jolla, California), Lot #210073, lyophilized in NaCl, was prepared first as a 1% solution and diluted as a 2×concentration for each dilution (0.5, 1.0, 2.5 μg/ml).
Six to eight week old male Balb/c and C3 H inbred mice were obtained from the following sources: Flow Research Animals, Inc., Dublin, Virginia; Charles River Breeding Laboratories, Wilmington, Massachusetts; Laboratory Supply Company, Indianapolis, Indiana; and Lionel Strong Foundation, San Diego, California.
Three to five mice were sacrificed by cervical dislocation and the spleens aseptically removed. Pooled spleens were minced and teased with sterile forceps; then strained through a double layer of nylon mesh. The cell suspension was washed once with 15 ml of RPMI 1640 supplemented with 5% fetal calf serum and antibiotics. Cells were cultured at a concentration of 10^6 cells/0.1 ml/well in micro-plates. Cultures were incubated in the presence or absence of mitogen in a humidified atmosphere containing 5% CO2 for 48 hours. The test compound was added to cultures at various concentrations concommitant with mitogen.
Proliferation was assayed by the degree of incorporation of 1.0 μCi of [^3 H] thymidine over an 18 hour incubation period. Cultures were harvested by a MASH unit (Otto Hiller Co., Madison, Wisconsin) and thymidine incorporation was assayed by liquid scintillation spectrometry. Cultures were performed in triplicate and data are expressed as means plus or minus the standard error of the experimental means. Drug stimulation indices over control values were also calculated and portrayed graphically.
as §1

[4] = tested on: spleen cells; assay: In vivo treatment of mice: effect on in vitro Con A stimulation of spleen cell proliferation; design: species or system male Balb/C mice
Description: The purpose of this study was to determine the effects of in vivo treatment of mice with the compounds NPT 15392 and 15410 on the subsequent activity of spleen cells isolated from these animals and evaluated in vitro for their proliferative response to the mitogen, Concanavalin A (Con A).
Nine male Balb/C mice, 8-9 weeks old, weighing 18-20 gms were divided into three groups. One group was treated twice daily (for 1 day), in the morning and afternoon, with an oral dose of NPT 15392 at 10 mg/kg. The second group was similarly treated with NPT 15410 at 20 mg/kg. A third group, dosed with saline served as a placebo control.
The following day, each group was sacrificed and the spleens removed and pooled. The spleens were minced and the cells washed in RPMI-1640 medium (Grand Island Biologicals) supplemental with 2 mm glutamine and antibiotics. The cell concentration of each preparation was determined by a Coulter counter and adjusted to 5×10^6 cells/ml with RPMI medium.
Microtiter assays were carried out in 0.2 ml incubations, containing 5×10^5 cells and Con A or Con A and compounds at the indicated concentrations. All assays were performed with 6 replicates and compared with a blank assay containing only cells. The assay plates were incubated at 37° in 5% CO2 for 4 days. During the final 18-20 hours of incubation, 0.5 ml of ^3 HTdR (10 μCi/ml, 6 Ci /m mole) were added to each culture. The cultures were harvested with a multiple automatic sample harvester (MASH) unit and the incorporated ^3 HTdR determined with a Beckman LS 8000 liquid scintillation counter, as a measure of cell proliferation. The results are tabulated as the ratio of the activity in the Con A or Con A and compound treated cultures to the blank cultures.

[5] = Con A 5 μg/ml (suboptimal), oral 15392 10 mg/kg, 15410 20 mg/kg

SMILES | Maximum Percent Change, Lymphokine Induced (MMF) Guinea Pig Mac. Prolif. ([1]; 1.0-10 (unit not given)) | Maximum Percent Change, Lymphokine Induced (MMF) Guinea Pig Mac. Prolif. ([1]; .01-1.0 (unit not given)) | potentiation of the immune response (in words) [2] | % Stimulation, Mitogen Induced Murine Lymphocyte Proliferation ([3]; 01-1.0 μg/ml) | % Stimulation, Mitogen Induced Murine Lymphocyte Proliferation ([3]; 1.0-10 μg/ml) | Maximum Percent Change, Mitogen Induced (Con A) Mouse Lymph. Prolif. ([3]; 1.0-10 (unit not given)) | % Stimulation, Mitogen Induced Murine Lymphocyte Proliferation ([3]; 10-100 μg/ml) | Maximum Percent Change, Mitogen Induced (Con A) Mouse Lymph. Prolif. ([3]; 10-100 (unit not given)) | Maximum Percent Change, Mitogen Induced (Con A) Mouse Lymph. Prolif. ([3]; .01-1.0 (unit not given)) | response of spleen cells to Con A after in vivo treatment (in words) [4, 5] | response of spleen cells to Con A after in vivo treatment (in words) ([4]; Con A 10 μg/ml (more optimal)) | Potentiation of immunopotentiation by DIP.PAcBA salt ([2]; salt compared with parent compound)
CCCCCC[C@H]([C@H](C)O)n1cnc2c(=O)[nH]cnc21 (relative stereo) [NPT 15392, ERYTHRO-9-(2-HYDROXY-3-NONYL)HYPOXANTHINE] | 23% | 33% | potentiation of the immune response has been observed | > 50% | 30-50% | 162% | 30-50% | -72% | 172% | increases the subsequent response of the spleen cells | No significant differences | –
CCCCCC[C@H]([C@H](C)O)n1cnc2c(=O)[nH]cnc21 (relative stereo) [NPT 15410] | 23% | 12% | potentiation of the immune response has been observed | > 50% | 30-50% | 40% | 30-50% | 40% | 140% | increases the subsequent response of the spleen cells | No significant differences | Yes
